Measured values: patent US8415469B2, “Compounds and methods for kinase modulation, and indications therefor” (Plexxikon Inc., priority 2005, dated 2013)

How the values were obtained:
Type in all cases: biochemical
Btk = biological target: T1, Btk (Homo sapiens, UniProt Q06187); test: Z'-Lyte FRET kinase assay (Invitrogen), Btk; conditions: read-out: IC50, activity toward kinase Btk
T1 construct: purchased Invitrogen (assay run by Invitrogen)

Jnk2 = biological target: T2, Jnk2 (Homo sapiens, UniProt P45984); test: AlphaScreen kinase assay, Jnk2; conditions: read-out: IC50, activity toward kinase Jnk2
T2 construct: purchased Roche Protein Expression Group (Indianapolis, IN)
T2 sequence (P45984 whole entry): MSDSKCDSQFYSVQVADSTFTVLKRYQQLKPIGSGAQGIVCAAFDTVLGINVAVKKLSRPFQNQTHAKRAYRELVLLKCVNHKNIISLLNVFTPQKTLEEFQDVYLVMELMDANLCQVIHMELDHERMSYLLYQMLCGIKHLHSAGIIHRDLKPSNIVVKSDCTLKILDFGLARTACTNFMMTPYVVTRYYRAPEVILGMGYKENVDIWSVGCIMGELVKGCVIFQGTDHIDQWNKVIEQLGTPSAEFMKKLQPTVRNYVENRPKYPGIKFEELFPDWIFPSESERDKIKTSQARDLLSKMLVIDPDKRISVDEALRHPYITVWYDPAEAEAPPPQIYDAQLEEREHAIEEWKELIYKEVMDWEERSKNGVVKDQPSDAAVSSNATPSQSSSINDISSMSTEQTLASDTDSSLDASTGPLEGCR
Procedure, shortened: (§1)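 Peptide phosphorylation detected by proximity: streptavidin donor beads bind biotinylated substrate, acceptor beads carry antibody to phosphorylated substrate, singlet oxygen transfer gives emission. Dose-response over 8 points (1:3 steps); stocks 20 mM in DMSO.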

FGFR1 = biological target: T3, FGFR1 (Homo sapiens, UniProt P11362, C488A/C584S); test: AlphaScreen kinase assay, FGFR1; conditions: read-out: IC50, activity toward kinase FGFR
T3 construct: P1351.pET N6 BI-PTP FGFR A458-E765-X C488A, C584S; made in house; host or cells: E. coli (PTP1B co-expressed)
T3 sequence (P11362 458-765 C488A/C584S): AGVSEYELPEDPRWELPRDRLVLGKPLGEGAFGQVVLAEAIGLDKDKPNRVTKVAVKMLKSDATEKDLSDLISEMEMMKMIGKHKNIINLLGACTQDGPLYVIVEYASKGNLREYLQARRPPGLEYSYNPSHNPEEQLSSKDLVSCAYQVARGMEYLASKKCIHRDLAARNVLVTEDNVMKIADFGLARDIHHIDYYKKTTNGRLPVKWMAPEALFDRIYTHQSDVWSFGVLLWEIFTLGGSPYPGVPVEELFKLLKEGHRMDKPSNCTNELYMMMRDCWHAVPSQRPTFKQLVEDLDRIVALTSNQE

B-Raf V600E = biological target: T4, B-Raf V600E (Homo sapiens, UniProt P15056, V600E); test: AlphaScreen kinase assay, B-Raf V600E; conditions: read-out: IC50, activity toward kinase B-Raf V600E
T4 construct: P4254. pFastBacBD-CDC37 BRAF D437-K722-X, V600E; His6 with pFastBac HT leader (TEV site) (N); made in house; host or cells: Sf9 (baculovirus; chaperone CDC37 co-expressed)
T4 sequence (P15056 with tags, fused parts or gaps V600E): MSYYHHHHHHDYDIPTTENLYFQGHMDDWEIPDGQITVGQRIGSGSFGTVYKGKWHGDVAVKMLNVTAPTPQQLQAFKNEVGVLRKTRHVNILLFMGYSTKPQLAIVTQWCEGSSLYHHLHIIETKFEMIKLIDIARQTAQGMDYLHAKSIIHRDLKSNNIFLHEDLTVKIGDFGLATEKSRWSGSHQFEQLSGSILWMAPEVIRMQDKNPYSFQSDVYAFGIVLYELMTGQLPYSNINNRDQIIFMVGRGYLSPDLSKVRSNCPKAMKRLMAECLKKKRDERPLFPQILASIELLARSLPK

Ret = biological target: T5, Ret (Homo sapiens, UniProt P07949); test: AlphaScreen kinase assay, Ret; conditions: read-out: IC50, activity toward kinase Ret
T5 construct: P1378.pET-SF BI-PTP RET H661-R1012 HIS; made in house
T5 sequence (P07949 with tags, fused parts or gaps): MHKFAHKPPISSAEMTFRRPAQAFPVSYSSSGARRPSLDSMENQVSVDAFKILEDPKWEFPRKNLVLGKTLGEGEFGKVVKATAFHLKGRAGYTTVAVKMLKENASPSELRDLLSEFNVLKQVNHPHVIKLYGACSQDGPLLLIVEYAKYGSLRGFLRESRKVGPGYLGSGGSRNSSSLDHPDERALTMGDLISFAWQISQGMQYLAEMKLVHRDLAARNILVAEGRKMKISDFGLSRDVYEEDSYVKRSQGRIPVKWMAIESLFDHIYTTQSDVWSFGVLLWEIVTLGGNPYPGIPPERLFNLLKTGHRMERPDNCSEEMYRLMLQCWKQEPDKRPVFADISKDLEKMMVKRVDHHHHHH

Gsk3β = Gsk3β (Homo sapiens, UniProt P49841); test: AlphaScreen kinase assay, Gsk3β; conditions: read-out: IC50, activity toward kinase Gsk3β
Procedure, shortened: as §1

IGF1R = IGF1R (Homo sapiens, UniProt P08069); test: AlphaScreen kinase assay, IGF1R; conditions: read-out: IC50, activity toward kinase IGF1R
IGF1R, sequence (P08069 31-1367): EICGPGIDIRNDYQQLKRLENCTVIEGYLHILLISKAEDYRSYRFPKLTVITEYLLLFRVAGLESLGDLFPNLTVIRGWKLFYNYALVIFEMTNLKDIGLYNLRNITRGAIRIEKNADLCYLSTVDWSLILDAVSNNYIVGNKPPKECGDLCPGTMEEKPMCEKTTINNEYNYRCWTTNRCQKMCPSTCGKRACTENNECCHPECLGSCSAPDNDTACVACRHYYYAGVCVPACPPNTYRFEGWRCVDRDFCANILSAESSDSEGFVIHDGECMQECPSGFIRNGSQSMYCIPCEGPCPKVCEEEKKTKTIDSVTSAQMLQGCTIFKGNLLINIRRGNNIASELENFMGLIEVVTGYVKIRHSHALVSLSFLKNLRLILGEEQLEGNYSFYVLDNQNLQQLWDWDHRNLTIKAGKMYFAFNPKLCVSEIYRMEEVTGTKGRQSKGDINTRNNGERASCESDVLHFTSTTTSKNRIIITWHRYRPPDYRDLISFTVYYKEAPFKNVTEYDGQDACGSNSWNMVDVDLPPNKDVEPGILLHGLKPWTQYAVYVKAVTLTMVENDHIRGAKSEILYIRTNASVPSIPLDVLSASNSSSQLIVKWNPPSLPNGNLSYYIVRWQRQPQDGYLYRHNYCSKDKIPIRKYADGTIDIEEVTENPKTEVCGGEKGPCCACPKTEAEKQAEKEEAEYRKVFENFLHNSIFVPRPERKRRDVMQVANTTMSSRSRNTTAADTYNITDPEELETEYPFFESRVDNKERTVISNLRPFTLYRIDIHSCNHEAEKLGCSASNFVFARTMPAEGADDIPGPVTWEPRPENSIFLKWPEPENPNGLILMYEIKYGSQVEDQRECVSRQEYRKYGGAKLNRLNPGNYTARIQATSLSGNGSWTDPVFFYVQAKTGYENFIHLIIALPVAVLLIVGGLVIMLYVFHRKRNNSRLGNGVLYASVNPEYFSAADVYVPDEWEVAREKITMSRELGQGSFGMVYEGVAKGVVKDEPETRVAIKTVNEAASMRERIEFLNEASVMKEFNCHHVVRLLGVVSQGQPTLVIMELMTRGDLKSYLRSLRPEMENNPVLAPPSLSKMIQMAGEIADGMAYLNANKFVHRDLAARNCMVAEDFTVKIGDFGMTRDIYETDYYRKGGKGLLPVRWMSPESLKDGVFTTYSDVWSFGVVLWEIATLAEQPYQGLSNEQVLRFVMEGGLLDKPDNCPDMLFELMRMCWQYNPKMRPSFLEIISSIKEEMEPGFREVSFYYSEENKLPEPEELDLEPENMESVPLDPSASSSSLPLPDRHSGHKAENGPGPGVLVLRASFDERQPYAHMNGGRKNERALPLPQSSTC

MAP2K1 = biological target: T6, MAP2K1 (Homo sapiens, UniProt Q02750); test: Z'-Lyte FRET kinase assay (Invitrogen), MAP2K1; conditions: read-out: IC50, activity toward kinase MAP2K1
T6 construct: purchased Invitrogen (assay run by Invitrogen)

Fms = biological target: T7, Fms (Homo sapiens, UniProt P07333); test: AlphaScreen kinase assay, Fms; conditions: read-out: IC50, activity toward kinase Fms
T7 construct: purchased Upstate Biotechnology

Kit = biological target: T8, Kit (Homo sapiens, UniProt P10721); test: AlphaScreen kinase assay, Kit; conditions: read-out: IC50, activity toward kinase Kit
T8 construct: P1332.N6 BI PTP KIT M552-K948-X COD; His6 (N); made in house; host or cells: E. coli (PTP1B co-expressed)

B-Raf = biological target: T9, B-Raf (Homo sapiens, UniProt P15056); test: AlphaScreen kinase assay, B-Raf; conditions: read-out: IC50, activity toward kinase B-Raf
T9 construct: purchased Upstate Biotechnology

Jnk3 = biological target: T10, Jnk3 (Homo sapiens, UniProt P53779); test: AlphaScreen kinase assay, Jnk3; conditions: read-out: IC50, activity toward kinase Jnk3
T10 construct: purchased Upstate Biotechnology

Jnk1 = biological target: T11, Jnk1 (Homo sapiens, UniProt P45983); test: AlphaScreen kinase assay, Jnk1; conditions: read-out: IC50, activity toward kinase Jnk1
T11 construct: purchased Upstate Biotechnology

c-Raf-1 = biological target: T12, c-Raf-1 (Homo sapiens, UniProt P04049); test: AlphaScreen kinase assay, c-Raf-1; conditions: read-out: IC50, activity toward kinase c-Raf-1
T12 construct: purchased Upstate Biotechnology
T12 sequence (P04049 whole entry): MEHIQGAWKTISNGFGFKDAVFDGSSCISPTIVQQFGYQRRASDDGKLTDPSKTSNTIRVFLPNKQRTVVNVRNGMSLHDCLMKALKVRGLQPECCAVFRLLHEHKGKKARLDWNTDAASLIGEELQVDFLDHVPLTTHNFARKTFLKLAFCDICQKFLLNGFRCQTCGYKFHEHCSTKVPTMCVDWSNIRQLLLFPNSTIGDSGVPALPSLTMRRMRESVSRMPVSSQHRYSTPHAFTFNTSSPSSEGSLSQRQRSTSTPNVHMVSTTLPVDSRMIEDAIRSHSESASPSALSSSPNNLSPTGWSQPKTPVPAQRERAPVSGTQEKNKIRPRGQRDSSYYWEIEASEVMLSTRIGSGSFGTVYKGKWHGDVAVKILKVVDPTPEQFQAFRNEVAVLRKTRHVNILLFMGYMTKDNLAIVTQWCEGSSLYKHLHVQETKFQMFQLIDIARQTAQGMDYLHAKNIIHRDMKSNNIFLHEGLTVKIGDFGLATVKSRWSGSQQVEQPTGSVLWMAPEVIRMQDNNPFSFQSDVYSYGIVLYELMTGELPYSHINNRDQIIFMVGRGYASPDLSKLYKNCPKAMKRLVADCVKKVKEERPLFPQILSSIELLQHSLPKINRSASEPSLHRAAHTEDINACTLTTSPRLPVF

MAP4K4 = MAP4K4 (Homo sapiens, UniProt O95819); test: AlphaScreen kinase assay, MAP4K4; conditions: read-out: IC50, activity toward kinase MAP4K4
MAP4K4, sequence (O95819 whole entry): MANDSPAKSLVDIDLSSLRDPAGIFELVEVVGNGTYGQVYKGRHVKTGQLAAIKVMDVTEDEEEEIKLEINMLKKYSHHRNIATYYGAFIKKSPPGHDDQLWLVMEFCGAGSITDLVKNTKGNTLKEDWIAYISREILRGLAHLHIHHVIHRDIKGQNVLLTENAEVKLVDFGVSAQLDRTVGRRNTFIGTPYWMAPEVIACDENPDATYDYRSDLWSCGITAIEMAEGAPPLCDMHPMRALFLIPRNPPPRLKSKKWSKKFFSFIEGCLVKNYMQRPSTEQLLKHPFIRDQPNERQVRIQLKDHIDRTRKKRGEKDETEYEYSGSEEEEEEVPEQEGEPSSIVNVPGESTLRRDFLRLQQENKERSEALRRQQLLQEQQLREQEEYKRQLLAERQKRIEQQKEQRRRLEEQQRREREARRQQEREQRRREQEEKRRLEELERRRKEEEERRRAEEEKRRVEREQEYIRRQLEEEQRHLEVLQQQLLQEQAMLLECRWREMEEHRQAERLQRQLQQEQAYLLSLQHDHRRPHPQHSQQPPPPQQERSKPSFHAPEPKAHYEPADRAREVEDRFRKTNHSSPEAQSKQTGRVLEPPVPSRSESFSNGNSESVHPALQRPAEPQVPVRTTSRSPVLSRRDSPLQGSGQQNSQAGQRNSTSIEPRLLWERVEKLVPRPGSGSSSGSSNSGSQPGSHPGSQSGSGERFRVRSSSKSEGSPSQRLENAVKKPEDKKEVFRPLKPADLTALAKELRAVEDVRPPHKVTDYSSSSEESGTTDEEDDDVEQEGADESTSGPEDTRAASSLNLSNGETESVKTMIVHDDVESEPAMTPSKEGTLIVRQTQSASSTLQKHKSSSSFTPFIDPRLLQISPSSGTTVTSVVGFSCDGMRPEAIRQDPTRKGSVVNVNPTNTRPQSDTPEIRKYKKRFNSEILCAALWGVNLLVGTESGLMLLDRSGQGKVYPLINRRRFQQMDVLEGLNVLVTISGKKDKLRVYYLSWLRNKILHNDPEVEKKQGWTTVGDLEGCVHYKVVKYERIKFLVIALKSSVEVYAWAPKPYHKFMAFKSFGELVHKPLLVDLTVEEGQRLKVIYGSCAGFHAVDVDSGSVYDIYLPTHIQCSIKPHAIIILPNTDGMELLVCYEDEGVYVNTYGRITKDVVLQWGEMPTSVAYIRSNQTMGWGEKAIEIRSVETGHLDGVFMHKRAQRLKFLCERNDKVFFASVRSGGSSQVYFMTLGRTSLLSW

Src = biological target: T13, Src (Homo sapiens, UniProt P12931); test: AlphaScreen kinase assay, Src; conditions: read-out: IC50, activity toward kinase Src
T13 construct: P1144. pET-N6 BI-PTP SRC V86-L536-X; made in house
T13 sequence (P12931 with tags, fused parts or gaps): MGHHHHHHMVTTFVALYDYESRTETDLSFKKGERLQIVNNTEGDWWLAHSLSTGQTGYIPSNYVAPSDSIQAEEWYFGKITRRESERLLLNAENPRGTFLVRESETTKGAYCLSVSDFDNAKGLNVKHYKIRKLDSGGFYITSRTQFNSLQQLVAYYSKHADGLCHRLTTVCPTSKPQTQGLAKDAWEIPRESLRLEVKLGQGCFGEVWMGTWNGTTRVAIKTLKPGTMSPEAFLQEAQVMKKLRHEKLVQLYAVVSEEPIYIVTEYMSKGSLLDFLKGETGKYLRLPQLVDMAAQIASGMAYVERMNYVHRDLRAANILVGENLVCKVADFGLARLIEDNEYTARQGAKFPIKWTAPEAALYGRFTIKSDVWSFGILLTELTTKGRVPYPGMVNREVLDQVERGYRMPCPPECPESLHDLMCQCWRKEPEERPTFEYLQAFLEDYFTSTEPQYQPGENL

Met = biological target: T14, Met (Homo sapiens, UniProt P08581); test: AlphaScreen kinase assay, Met; conditions: read-out: IC50, activity toward kinase Met
T14 construct: P1818.pETN6 BI-PTP MET G1056-G1364-X WT; His6 (N); made in house; host or cells: E. coli (PTP1B co-expressed)
Procedure, shortened: as §1

Fak = biological target: T15, Fak (Homo sapiens, UniProt Q05397); test: AlphaScreen kinase assay, Fak; conditions: read-out: IC50, activity toward kinase Fak
T15 construct: P1358.pFastBacHtb FAK S411-Q686-X; His6 with pFastBacHTb leader (TEV site) (N); made in house; host or cells: Sf9 (baculovirus)
T15 sequence (Q05397 411-686): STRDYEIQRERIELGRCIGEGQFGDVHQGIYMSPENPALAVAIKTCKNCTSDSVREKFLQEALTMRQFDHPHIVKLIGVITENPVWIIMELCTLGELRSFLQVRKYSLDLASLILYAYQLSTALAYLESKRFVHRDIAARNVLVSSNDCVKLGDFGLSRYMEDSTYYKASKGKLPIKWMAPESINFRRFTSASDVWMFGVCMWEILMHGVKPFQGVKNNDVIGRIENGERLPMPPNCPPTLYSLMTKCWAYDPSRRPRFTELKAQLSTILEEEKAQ

Pyk2 = biological target: T16, Pyk2 (Homo sapiens, UniProt Q14289); test: AlphaScreen kinase assay, Pyk2; conditions: read-out: IC50, activity toward kinase Pyk2
T16 construct: purchased Upstate Biotechnology

Flt1 = biological target: T17, Flt1 (Homo sapiens, UniProt P17948); test: AlphaScreen kinase assay, Flt1; conditions: read-out: IC50, activity toward kinase Flt1
T17 construct: P1826.pETN6 BI-PTP FLT1 M799-D1165-X WT; His6 (N); made in house; host or cells: E. coli (PTP1B co-expressed)
T17 sequence (P17948 with tags, fused parts or gaps): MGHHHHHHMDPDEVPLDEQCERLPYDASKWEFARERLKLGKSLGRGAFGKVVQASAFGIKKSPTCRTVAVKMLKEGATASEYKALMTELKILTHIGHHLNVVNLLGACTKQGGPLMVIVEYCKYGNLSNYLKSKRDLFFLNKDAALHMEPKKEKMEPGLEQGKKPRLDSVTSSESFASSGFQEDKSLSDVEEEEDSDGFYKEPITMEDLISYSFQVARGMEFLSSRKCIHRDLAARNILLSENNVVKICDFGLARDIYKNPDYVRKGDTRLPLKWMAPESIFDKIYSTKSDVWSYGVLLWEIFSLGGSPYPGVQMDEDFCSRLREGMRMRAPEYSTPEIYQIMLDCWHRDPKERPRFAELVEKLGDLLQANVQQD

Stk6 = biological target: T18, Stk6 (Homo sapiens, UniProt O14965); test: Z'-Lyte FRET kinase assay (Invitrogen), Stk6; conditions: read-out: IC50, activity toward kinase Stk6
T18 construct: purchased Invitrogen (Carlsbad, Calif.), screening service
T18 sequence (O14965 1-403): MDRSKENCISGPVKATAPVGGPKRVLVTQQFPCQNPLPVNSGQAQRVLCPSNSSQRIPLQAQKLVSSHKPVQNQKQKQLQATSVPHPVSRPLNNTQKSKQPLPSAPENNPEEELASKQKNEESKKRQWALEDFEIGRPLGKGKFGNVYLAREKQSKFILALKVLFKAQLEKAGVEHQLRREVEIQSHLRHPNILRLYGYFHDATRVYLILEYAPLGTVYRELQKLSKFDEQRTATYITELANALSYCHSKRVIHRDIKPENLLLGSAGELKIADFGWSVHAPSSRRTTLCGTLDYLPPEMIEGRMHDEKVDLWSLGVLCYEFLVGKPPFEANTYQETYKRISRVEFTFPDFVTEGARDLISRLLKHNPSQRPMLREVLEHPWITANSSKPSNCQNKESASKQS

Kdr = biological target: T19, Kdr (Homo sapiens, UniProt P35968); test: Z'-Lyte FRET kinase assay (Invitrogen), Kdr; conditions: read-out: IC50, activity toward kinase Kdr
T19 construct: purchased Invitrogen (assay run by Invitrogen)

IKK beta = biological target: T20, IKK beta (Homo sapiens, UniProt O14920); test: AlphaScreen kinase assay, IKK beta; conditions: read-out: IC50, activity toward kinase IKK beta
T20 sequence (O14920 1-756): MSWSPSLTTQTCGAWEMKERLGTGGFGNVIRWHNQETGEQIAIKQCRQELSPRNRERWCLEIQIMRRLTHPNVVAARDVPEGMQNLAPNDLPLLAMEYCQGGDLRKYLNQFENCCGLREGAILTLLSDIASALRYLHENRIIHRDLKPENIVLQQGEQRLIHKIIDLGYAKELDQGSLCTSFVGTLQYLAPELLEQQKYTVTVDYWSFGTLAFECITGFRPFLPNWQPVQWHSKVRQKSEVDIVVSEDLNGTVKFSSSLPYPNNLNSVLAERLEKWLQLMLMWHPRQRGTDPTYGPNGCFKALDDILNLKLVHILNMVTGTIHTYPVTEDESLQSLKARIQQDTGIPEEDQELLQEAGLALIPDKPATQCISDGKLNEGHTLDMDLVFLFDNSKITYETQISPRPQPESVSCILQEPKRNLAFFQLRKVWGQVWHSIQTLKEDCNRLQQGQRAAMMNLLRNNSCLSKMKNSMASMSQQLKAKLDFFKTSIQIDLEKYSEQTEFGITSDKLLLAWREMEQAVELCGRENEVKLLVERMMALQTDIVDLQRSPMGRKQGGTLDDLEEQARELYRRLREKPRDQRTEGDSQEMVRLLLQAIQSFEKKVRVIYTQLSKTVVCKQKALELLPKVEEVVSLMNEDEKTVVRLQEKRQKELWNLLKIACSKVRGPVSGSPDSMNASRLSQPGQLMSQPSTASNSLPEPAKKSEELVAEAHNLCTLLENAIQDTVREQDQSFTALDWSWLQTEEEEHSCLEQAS

IC50 (Btk) [µM] | IC50 (Jnk2) [µM] | IC50 (FGFR1) [µM] | IC50 (B-Raf V600E) [µM] | IC50 (Ret) [µM] | IC50 (Gsk3β) [µM] | IC50 (IGF1R) [µM] | IC50 (Fms) [µM] | IC50 (Kit) [µM] | IC50 (B-Raf) [µM] | IC50 (Jnk3) [µM] | IC50 (Jnk1) [µM] | IC50 (c-Raf-1) [µM] | IC50 (MAP4K4) [µM] | IC50 (Src) [µM] | IC50 (Met) [µM] | IC50 (Fak) [µM] | IC50 (Pyk2) [µM] | SMILES | further results
≤ 10 | ≤ 10 | ≤ 10 | ≤ 10 | ≤ 10 | ≤ 10 | ≤ 10 | ≤ 10 | ≤ 10 | ≤ 10 | ≤ 10 | ≤ 10 | ≤ 10 | ≤ 10 | ≤ 10 |  |  |  | CS(=O)(=O)Nc1ccc(F)c(C(=O)c2c[nH]c3ncc(-c4cccnc4)cc23)c1 [Compound P-0079, N-[4-Fluoro-3-(5-pyridin-3-yl-1H-pyrrolo[2,3-b]pyridine-3-carbonyl)-phenyl]-methanesulfonamide] | IC50 (MAP2K1): ≤ 10 µM
 | ≤ 10 | ≤ 10 | ≤ 10 | ≤ 10 |  | ≤ 10 |  |  | ≤ 10 |  |  | ≤ 10 |  |  | ≤ 10 |  |  | CS(=O)(=O)Nc1cccc(-c2cnc3[nH]cc(C(=O)c4c(F)ccc(NS(C)(=O)=O)c4F)c3c2)c1 [Compound P-0746, N-{2,4-Difluoro-3-[5-(3-methanesulfonylamino-phenyl)-1H-pyrrolo[2,3-b]pyridine-3-carbonyl]-phenyl}-methanesulfonamide] | 
 |  | ≤ 10 | ≤ 10 |  | ≤ 10 | ≤ 10 | ≤ 10 | ≤ 10 | ≤ 10 |  | ≤ 10 | ≤ 10 | ≤ 10 | ≤ 10 |  | ≤ 10 | ≤ 10 | CC(C)S(=O)(=O)Nc1ccc(F)c(C(=O)c2c[nH]c3ncc(-c4cccnc4)cc23)c1F [Compound P-0850, propane-2-sulfonic acid [2,4-difluoro-3-(5-pyridin-3-yl-1H-pyrrolo[2,3-b]pyridin-3-carbonyl)-phenyl]-amide] | 
 | ≤ 10 | ≤ 10 | ≤ 10 | ≤ 10 | ≤ 10 | ≤ 10 |  | ≤ 10 | ≤ 10 |  | ≤ 10 | ≤ 10 | ≤ 10 | ≤ 10 | ≤ 10 | ≤ 10 | ≤ 10 | CS(=O)(=O)Nc1ccc(F)c(C(=O)c2c[nH]c3ncc(-c4cccnc4)cc23)c1F [Compound P-0700, N-[2,4-Difluoro-3-(5-pyridin-3-yl-1H-pyrrolo[2,3-b]pyridine-3-carbonyl)-phenyl]-methanesulfonamide] | IC50 (Flt1): ≤ 10 µM
 |  |  |  | ≤ 10 |  | ≤ 10 |  | ≤ 10 |  | ≤ 10 |  |  |  |  |  |  |  | CC(=O)Nc1cccc(-c2cnc3[nH]ccc3c2)c1 [Compound P-0115] | IC50 (Stk6): ≤ 10 µM; IC50 (Kdr): ≤ 10 µM; IC50 (IKK beta): ≤ 10 µM
≤ 10 |  | ≤ 10 | ≤ 10 |  |  | ≤ 10 | ≤ 10 | ≤ 10 | ≤ 10 |  | ≤ 10 | ≤ 10 |  | ≤ 10 |  | ≤ 10 |  | COc1ccc(F)c(C(=O)c2c[nH]c3ncc(-c4cccc(NC(C)=O)c4)cc23)c1F [Compound P-1390, N-{3-[3-(2,6-Difluoro-3-methoxy-benzoyl)-1H-pyrrolo[2,3-b]pyridin-5-yl]-phenyl}-acetamide] | 
